From the NIST ThermoML archive (doi:10.1021/je400512u)
± gives the expanded uncertainty stated by the source.

What was measured:
[1] = xn = mol fraction of the nth substance listed; conditions: 101 kPa, Liquid, x2 = 0; for viscosity: Concentric cylinders viscometry; for speed of sound: Pulse-echo method; for mass density: Vibrating tube method
[2] = 101 kPa, Liquid; for viscosity: Concentric cylinders viscometry; for speed of sound: Pulse-echo method; for mass density: Vibrating tube method

SMILES: C1COCCO1 [1,4-dioxane] + CCCCCCCO
- viscosity ([1]; 298.15 K): 1.212 ± 0.042 mPa·s
- speed of sound ([1]; 298.15 K): 1345.1 ± 1.2 m/s
- mass density ([1]; 298.15 K): 1027.99 ± 0.25 kg/m3
- viscosity ([1]; 303.15 K): 1.115 ± 0.039 mPa·s
- speed of sound ([1]; 303.15 K): 1323.1 ± 1.2 m/s
- mass density ([1]; 303.15 K): 1022.33 ± 0.25 kg/m3
- viscosity ([1]; 308.15 K): 1.028 ± 0.036 mPa·s
- speed of sound ([1]; 308.15 K): 1301.3 ± 1.2 m/s
- mass density ([1]; 308.15 K): 1016.66 ± 0.24 kg/m3
- viscosity ([1]; 313.15 K): 0.952 ± 0.033 mPa·s
- speed of sound ([1]; 313.15 K): 1279.7 ± 1.2 m/s
- mass density ([1]; 313.15 K): 1010.98 ± 0.24 kg/m3
- viscosity ([1]; 318.15 K): 0.883 ± 0.031 mPa·s
- speed of sound ([1]; 318.15 K): 1258.2 ± 1.2 m/s
- mass density ([1]; 318.15 K): 1005.28 ± 0.23 kg/m3
- viscosity ([1]; 323.15 K): 0.822 ± 0.029 mPa·s
- speed of sound ([1]; 323.15 K): 1237.4 ± 1.2 m/s
- mass density ([1]; 323.15 K): 999.58 ± 0.23 kg/m3

SMILES: C1COCCO1 [1,4-dioxane]
- viscosity ([2]; 298.15 K): 1.212 ± 0.042 mPa·s
- speed of sound ([2]; 298.15 K): 1345.1 ± 1.2 m/s
- mass density ([2]; 298.15 K): 1027.99 ± 0.25 kg/m3
- viscosity ([2]; 303.15 K): 1.115 ± 0.039 mPa·s
- speed of sound ([2]; 303.15 K): 1323.1 ± 1.2 m/s
- mass density ([2]; 303.15 K): 1022.33 ± 0.25 kg/m3
- viscosity ([2]; 308.15 K): 1.028 ± 0.036 mPa·s
- speed of sound ([2]; 308.15 K): 1301.3 ± 1.2 m/s
- mass density ([2]; 308.15 K): 1016.66 ± 0.24 kg/m3
- viscosity ([2]; 313.15 K): 0.952 ± 0.033 mPa·s
- speed of sound ([2]; 313.15 K): 1279.7 ± 1.2 m/s
- mass density ([2]; 313.15 K): 1010.98 ± 0.24 kg/m3
- viscosity ([2]; 318.15 K): 0.883 ± 0.031 mPa·s
- speed of sound ([2]; 318.15 K): 1258.2 ± 1.2 m/s
- mass density ([2]; 318.15 K): 1005.28 ± 0.23 kg/m3
- viscosity ([2]; 323.15 K): 0.822 ± 0.029 mPa·s
- speed of sound ([2]; 323.15 K): 1237.4 ± 1.2 m/s
- mass density ([2]; 323.15 K): 999.58 ± 0.23 kg/m3

SMILES: CCCCCCCO [heptan-1-ol]
- viscosity ([2]; 298.15 K): 5.869 ± 0.2 mPa·s
- speed of sound ([2]; 298.15 K): 1328.3 ± 1.2 m/s
- mass density ([2]; 298.15 K): 819.73 ± 0.23 kg/m3
- viscosity ([2]; 303.15 K): 4.989 ± 0.17 mPa·s
- speed of sound ([2]; 303.15 K): 1311.3 ± 1.2 m/s
- mass density ([2]; 303.15 K): 816.183 ± 0.23 kg/m3
- viscosity ([2]; 308.15 K): 4.27 ± 0.15 mPa·s
- speed of sound ([2]; 308.15 K): 1294.5 ± 1.2 m/s
- mass density ([2]; 308.15 K): 812.61 ± 0.23 kg/m3
- viscosity ([2]; 313.15 K): 3.677 ± 0.13 mPa·s
- speed of sound ([2]; 313.15 K): 1277.7 ± 1.2 m/s
- mass density ([2]; 313.15 K): 809.011 ± 0.23 kg/m3
- viscosity ([2]; 318.15 K): 3.186 ± 0.11 mPa·s
- speed of sound ([2]; 318.15 K): 1261.1 ± 1.2 m/s
- mass density ([2]; 318.15 K): 805.383 ± 0.24 kg/m3
- viscosity ([2]; 323.15 K): 2.777 ± 0.096 mPa·s
- speed of sound ([2]; 323.15 K): 1245.1 ± 1.2 m/s
- mass density ([2]; 323.15 K): 801.731 ± 0.24 kg/m3
